# Experimental data as given in patent US20110301142A1, “ANTAGONISTS OF LYSOPHOSPHATIDIC ACID RECEPTORS” (priority 2008, published 2011).
# What was measured:
# human LPA3 = molecular target: T1, human LPA3 (Homo sapiens, UniProt Q9UBY5); experiment: LPA3 calcium flux assay; format: cell-based; details: Human LPA3 expressing CHO cells, stimulated with 10 nM LPA; read-out: HLPA3 Ca Flux IC50
# T1 construct: The full-length cDNA fragment for human LPA3 was obtained by PCR from the vector; expressed in transfected cells; cDNA from the Missouri S&T cDNA Resource Center
# T1 sequence (Q9UBY5 1-353): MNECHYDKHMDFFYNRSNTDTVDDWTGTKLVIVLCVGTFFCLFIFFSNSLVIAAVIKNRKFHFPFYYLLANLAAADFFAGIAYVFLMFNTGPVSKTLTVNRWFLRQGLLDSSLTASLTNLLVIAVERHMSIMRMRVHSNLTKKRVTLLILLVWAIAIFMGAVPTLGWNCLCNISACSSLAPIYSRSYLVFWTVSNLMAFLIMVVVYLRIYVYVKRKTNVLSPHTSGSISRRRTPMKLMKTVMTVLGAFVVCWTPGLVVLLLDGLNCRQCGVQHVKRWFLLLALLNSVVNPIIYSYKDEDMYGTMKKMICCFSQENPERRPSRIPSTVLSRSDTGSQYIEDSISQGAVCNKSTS
# Method: A vector containing the human LPA3 receptor cDNA was obtained from the Missouri S&T cDNA Resource Center (www.cdna.org). The full-length cDNA fragment for human LPA3 was obtained by PCR from the vector. The nucleotide sequence of the cloned human LPA3 was determined by sequencing and confirmed to be identical to the published human LPA3 sequence (NCBI accession number NM 012152). The cDNA was cloned into the pcDNA5/FRT expression plasmid and transfected in CHO cells using lipofectamine 2000 (Invitrogen Corp., USA). Clones stably expressing human LPA3 were selected using hygromycin and identified as cells that show Ca-influx in response to LPA.
# (§1) Human LPA1 or LPA3 expressing CHO cells are seeded at 20,000-45,000 cells per well in a 96-well poly-D-lysine coated plate one or two days before the assay. Prior to the assay, the cells are washed once with PBS and then cultured in serum-free media overnight. On the day of the assay, a calcium indicator dye (Calcium 4, Molecular Devices) in assay buffer (HBSS with Ca^2+ and Mg^2+ and containing 20 mM Hepes and 0.3% fatty-acid free human serum albumin) is added to each well and incubation continued for 1 hour at 37° C. 10 μl of test compounds in 2.5% DMSO are added to the cells and incubation continued at room temperature for 30 minutes. Cells are the stimulated by the addition of 10 nM LPA and intracellular Ca^2+ measured using the Flexstation 3 (Molecular Devices). IC50s are determined using Graphpad prism analysis of drug titration curves.
# human LPA1 = molecular target: T2, human LPA1 (Homo sapiens, UniProt Q92633); experiment: LPA1 calcium flux assay (HLPA1 Ca Flux); format: cell-based; details: Human LPA1 expressing CHO cells, stimulated with 10 nM LPA
# T2 construct: the full-length cDNA for human LPA1 was obtained by PCR of the reverse transcription reaction; expressed in transfected cells
# T2 sequence (Q92633 whole entry): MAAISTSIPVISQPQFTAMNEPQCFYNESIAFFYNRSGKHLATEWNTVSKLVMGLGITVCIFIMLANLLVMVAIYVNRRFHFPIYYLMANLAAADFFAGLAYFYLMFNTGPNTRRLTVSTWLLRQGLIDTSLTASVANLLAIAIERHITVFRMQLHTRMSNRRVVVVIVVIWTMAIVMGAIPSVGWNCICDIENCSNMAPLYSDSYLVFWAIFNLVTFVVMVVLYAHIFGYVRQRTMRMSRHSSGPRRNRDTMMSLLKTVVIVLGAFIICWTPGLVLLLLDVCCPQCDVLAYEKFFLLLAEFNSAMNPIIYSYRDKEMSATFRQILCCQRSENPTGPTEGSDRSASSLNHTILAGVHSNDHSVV
# Method: A 1.1 kb cDNA encoding the human LPA1 receptor was cloned from human lung. Human lung RNA (Clontech Laboratories, Inc. USA) was reverse transcribed using the RETROscript kit (Ambion, Inc.) and the full-length cDNA for human LPA1 was obtained by PCR of the reverse transcription reaction. The nucleotide sequence of the cloned human LPA1 was determined by sequencing and confirmed to be identical to the published human LPA1 sequence (An et al. Biochem. Biophys. Res. Commun. 231:619 (1997). The cDNA was cloned into the pcDNAS/FRT expression plasmid and transfected in CHO cells using lipofectamine 2000 (Invitrogen Corp., USA). Clones stably expressing human LPA1 were selected using hygromycin and identified as cells that show Ca-influx in response to LPA.
# as §1
IC50 (human LPA3),IC50 (human LPA1),SMILES
–,< 0.3 µM,"Cc1noc(-c2ccc(Cc3ccc(C(=O)NC4CC4)cc3)cc2)c1NC(=O)OC(C)c1ccccc1Cl (centres unmarked) [Compound 2-1, {5-[4-(4-Cyclopropylcarbamoyl-benzyl)-phenyl]-3-methyl-isoxazol-4-yl}-carbamic acid 1-(2-chloro-phenyl)-ethyl ester]"
–,1 to 50 µM,"Cc1noc(-c2ccc(-c3ccc(CC(=N)N)cc3)cc2)c1NC(=O)O[C@H](C)c1ccccc1F [Compound 2-6, [5-(4′-Carbamimidoylmethyl-biphenyl-4-yl)-3-methyl-isoxazol-4-yl]-carbamic acid (R)-1-(2-fluoro-phenyl)-ethyl ester]"
–,< 0.3 µM,"CC(=O)NC(=N)Cc1ccc(-c2ccc(-c3onc(C)c3NC(=O)O[C@H](C)c3ccccc3F)cc2)cc1 [Compound 2-7, {5-[4′-(2-Acetylamino-2-imino-ethyl)-biphenyl-4-yl]-3-methyl-isoxazol-4-yl}-carbamic acid (R)-1-(2-fluoro-phenyl)-ethyl ester]"
–,0.3 to 1 µM,Cc1noc(-c2ccc3cc(-c4ccc(CC(=O)O)cc4)ccc3c2)c1NC(=O)OC(C)c1ccccc1Cl (centres unmarked) [Compound 3-1]
–,0.3 to 1 µM,"Cc1noc(-c2ccc3cc(-c4ccc(CSCCC(=O)O)cc4)ccc3c2)c1NC(=O)OC(C)c1ccccc1Cl (centres unmarked) [Compound 3-2, 3-[4-(6-{4-[1-(2-Chloro-phenyl)-ethoxycarbonylamino]-3-methyl-isoxazol-5-yl}-naphthalen-2-yl)-benzylsulfanyl]-propionic acid]"
–,1 to 50 µM,"Cc1noc(-c2csc(-c3ccc(CC(=O)O)cc3)n2)c1NC(=O)O[C@H](C)c1ccccc1F [Compound 3-3, [4-(4-{4-[(R)-1-(2-Fluoro-phenyl)-ethoxycarbonylamino]-3-methyl-isoxazol-5-yl}-thiazol-2-yl)-phenyl]-acetic acid]"
–,1 to 50 µM,"Cc1noc(-c2csc(-c3ccccc3CC(=O)O)n2)c1NC(=O)O[C@H](C)c1ccccc1F [Compound 3-5, [2-(4-{4-[(R)-1-(2-Fluoro-phenyl)-ethoxycarbonylamino]-3-methyl-isoxazol-5-yl}-thiazol-2-yl)-phenyl]acetic acid]"
–,0.3 to 1 µM,"Cc1noc(-c2csc(-c3cccc(CC(=O)O)c3)n2)c1NC(=O)O[C@H](C)c1ccccc1F [Compound 3-6, [3-(4-{4-[(R)-1-(2-Fluoro-phenyl)-ethoxycarbonylamino]-3-methyl-isoxazol-5-yl}-thiazol-2-yl)-phenyl]acetic acid]"

# More lines, now with the values behind:
SMILES,IC50 (human LPA3),IC50 (human LPA1)
"Cc1noc(-c2ccc(-c3ccc(C(C)C(=O)O)cc3)cc2)c1NC(=O)O[C@H](C)c1ccccc1Cl (single isomer, unassigned) [Compound 1-127]",0.3 to 1 µM,< 0.3 µM
"Cc1noc(-c2ccc(-c3ccc(C(C)C(=O)O)cc3)cc2)c1NC(=O)O[C@H](C)c1ccccc1Cl (single isomer, unassigned) [Compound 1-128]",1 to 50 µM,< 0.3 µM
"Cc1noc(-c2ccc(Cn3cnc(C(=O)O)n3)cc2)c1NC(=O)OC(C)c1ccccc1Cl (centres unmarked) [Compound 1-1, 1-(4-{4-[1-(2-Chloro-phenyl)-ethoxycarbonylamino]-3-methyl-isoxazol-5-yl}-benzyl)-1H-[1,2,4]triazole-3-carboxylic acid]",1 to 50 µM,< 0.3 µM
"Cc1noc(-c2ccc(Cn3cncc3C(=O)O)cc2)c1NC(=O)OC(C)c1ccccc1Cl (centres unmarked) [Compound 1-3, 3-(4-{4-[1-(2-Chloro-phenyl)-ethoxycarbonylamino]-3-methyl-isoxazol-5-yl}-benzyl)-3H-1-imidazole-4-carboxylic acid]",1 to 50 µM,< 0.3 µM
"Cc1noc(-c2ccc(Cn3ncc(C(=O)O)c3C(F)(F)F)cc2)c1NC(=O)OC(C)c1ccccc1Cl (centres unmarked) [Compound 1-4, 1-(4-{4-[1-(2-Chloro-phenyl)-ethoxycarbonylamino]-3-methyl-isoxazol-5-yl}-benzyl)-5-trifluoromethyl-1H-pyrazole-4-carboxylic acid]",1 to 50 µM,< 0.3 µM
"CCOC(=O)Cc1ccc(Sc2ccc(-c3onc(C)c3NC(=O)O[C@H](C)c3ccccc3F)cc2)cc1 [Compound 1-105, [4-(4-{4-[(R)-1-(2-Fluoro-phenyl)-ethoxycarbonylamino]-3-methyl-isoxazol-5-yl}-phenylsulfanyl)-phenyl]-acetic acid ethyl ester]",–,1 to 50 µM
"Cc1noc(-c2ccc(Sc3cccc(CC(=O)O)c3)cc2)c1NC(=O)O[C@H](C)c1ccccc1F [Compound 1-106, [3-(4-{4-[(R)-1-(2-Fluoro-phenyl)-ethoxycarbonylamino]-3-methyl-isoxazol-5-yl}-phenylsulfanyl)-phenyl]-acetic acid]",–,0.3 to 1 µM
"Cc1noc(-c2ccc(Sc3ccccc3CC(=O)O)cc2)c1NC(=O)O[C@H](C)c1ccccc1F [Compound 1-107, [2-(4-{4-[(R)-1-(2-Fluoro-phenyl)-ethoxycarbonylamino]-3-methyl-isoxazol-5-yl}-phenylsulfanyl)-phenyl]-acetic acid]",–,1 to 50 µM
"Cc1noc(-c2ccc(Sc3ccc(CC(=O)O)cn3)cc2)c1NC(=O)O[C@H](C)c1ccccc1F [Compound 1-108, [6-(4-{4-[(R)-1-(2-Fluoro-phenyl)-ethoxycarbonylamino]-3-methyl-isoxazol-5-yl}-phenylsulfanyl)-pyridin-3-yl]-acetic acid]",–,< 0.3 µM
"Cc1cc(-c2onc(C)c2NC(=O)O[C@H](C)c2ccccc2F)ccc1-c1ccc(C(C)C(=O)O)cc1 (stereo partly drawn) [Compound 1-110, 2-(4′-{4-[(R)-1-(2-Fluoro-phenyl)-ethoxycarbonylamino]-3-methyl-isoxazol-5-yl}-2′-methyl-biphenyl-4-yl)-propionic acid]",–,< 0.3 µM
"Cc1noc(-c2ccc(-c3ccc(CC(=O)O)cc3)cc2)c1NC(=O)OCc1ccccc1Cl [Compound 1-113, {4′-[4-(2-Chloro-benzyloxycarbonylamino)-3-methyl-isoxazol-5-yl]-biphenyl-4-yl}-acetic acid]",–,0.3 to 1 µM
"COc1ccc(C(C)OC(=O)Nc2c(C)noc2-c2ccc(-c3ccc(CC(=O)O)cc3)cc2)c(F)c1 (centres unmarked) [Compound 1-118, (4′-{4-[1-(2-Fluoro-4-methoxy-phenyl)-ethoxycarbonylamino]-3-methyl-isoxazol-5-yl}-biphenyl-4-yl)-acetic acid]",–,0.3 to 1 µM
Cc1noc(-c2ccc(-c3ccccc3CC(=O)O)cc2)c1NC(=O)O[C@H](C)c1ccccc1 [Compound 1-123],–,1 to 50 µM
"Cc1noc(-c2ccc(-c3ccc(C(=O)O)cc3)cc2)c1NC(=O)OC(C)C [Compound 1-125, 4′-(4-Isopropoxycarbonylamino-3-methyl-isoxazol-5-yl)-biphenyl-4-carboxylic acid]",–,1 to 50 µM
"COC(=O)Cn1nnc(-c2ccc(-c3onc(C)c3NC(=O)O[C@H](C)c3ccccc3F)cc2)n1 [Compound 1-134, [5-(4-{4-[(R)-1-(2-Fluoro-phenyl)-ethoxycarbonylamino]-3-methyl-isoxazol-5-yl}-phenyl)-tetrazol-2-yl]-acetic acid methyl ester]",–,1 to 50 µM
"Cc1noc(-c2ccc(-c3nnn(CC(=O)O)n3)cc2)c1NC(=O)O[C@H](C)c1ccccc1F [Compound 1-135, [5-(4-{4-[(R)-1-(2-Fluoro-phenyl)-ethoxycarbonylamino]-3-methyl-isoxazol-5-yl}-phenyl)-tetrazol-2-yl]-acetic acid]",–,1 to 50 µM
"Cc1noc(-c2ccc(-c3ccc(CC(=O)O)cc3)cc2)c1NC(=O)OC(C)(C)C [Compound 1-136, [4′-(4-tert-Butoxycarbonylamino-3-methyl-isoxazol-5-yl)-biphenyl-4-yl]-acetic acid]",–,0.3 to 1 µM
Cc1noc(-c2ccc(CN3CC(C(=O)O)C3)cc2)c1NC(=O)O[C@H](C)c1ccccc1 [Compound 1-140],–,1 to 50 µM
"Cc1noc(-c2ccc(-c3ccc(CC(=O)O)cc3)cc2)c1NC(=O)O[C@H](C)c1cc(Br)cc(Br)c1 [Compound 1-141, (4′-{4-[(R)-1-(3,5-Dibromo-phenyl)-ethoxycarbonylamino]-3-methyl-isoxazol-5-yl}-biphenyl-4-yl)-acetic acid]",–,1 to 50 µM
